Measured values reported in doi:10.1101/2020.06.27.175109v1 (biorxiv, 2020).

Legend:
[1] = target: T1, CK2α (full-length, NanoLuc fusion) (Homo sapiens, UniProt P68400); test: cell-based; set-up: species or system HEK293T
[2] = target: T2, CK2α’ (full-length, NanoLuc fusion) (Homo sapiens, UniProt P19784); test: cell-based; set-up: species or system HEK293T
[3] = target: T2, CK2α’ (full-length, NanoLuc fusion); test: NanoBRET tracer displacement, intact HEK293T; assay type: cell-based; conditions: intact cells, […] h, […] °C, tracer competition
[4] = target: T1, CK2α (full-length, NanoLuc fusion); test: NanoBRET tracer displacement, intact HEK293T; assay type: cell-based; conditions: intact cells, […] h, […] °C, tracer competition

T2 sequence (P19784 whole entry, the tested form may be a part): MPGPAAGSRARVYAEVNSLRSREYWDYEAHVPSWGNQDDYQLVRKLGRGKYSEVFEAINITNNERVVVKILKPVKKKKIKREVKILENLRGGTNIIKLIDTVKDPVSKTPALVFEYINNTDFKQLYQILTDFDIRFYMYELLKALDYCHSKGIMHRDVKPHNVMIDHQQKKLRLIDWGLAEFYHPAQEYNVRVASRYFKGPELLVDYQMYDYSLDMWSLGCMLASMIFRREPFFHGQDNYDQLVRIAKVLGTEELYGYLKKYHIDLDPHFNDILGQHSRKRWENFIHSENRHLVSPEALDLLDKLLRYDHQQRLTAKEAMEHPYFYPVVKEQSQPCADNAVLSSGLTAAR
T1 sequence (P68400 whole entry, the tested form may be a part): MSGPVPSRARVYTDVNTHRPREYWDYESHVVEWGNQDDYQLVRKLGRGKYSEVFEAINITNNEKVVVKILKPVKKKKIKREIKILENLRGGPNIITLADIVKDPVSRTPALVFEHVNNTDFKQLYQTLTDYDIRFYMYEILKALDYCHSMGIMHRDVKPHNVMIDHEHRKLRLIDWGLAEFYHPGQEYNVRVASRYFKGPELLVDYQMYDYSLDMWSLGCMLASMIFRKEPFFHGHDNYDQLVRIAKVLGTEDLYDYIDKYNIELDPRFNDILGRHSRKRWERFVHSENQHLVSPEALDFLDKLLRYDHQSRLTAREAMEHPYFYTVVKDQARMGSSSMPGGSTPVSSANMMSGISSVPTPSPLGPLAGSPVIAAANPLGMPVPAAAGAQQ

Row | IC50 [1] [µM] | IC50 [2] [µM] | IC50 [4] [µM] | SMILES | IC50 [3] [µM]
1 | > 50 | > 50 |  | CC(C)(C)OC(=O)N(CCOCCO)c1ccn2ncc(-c3ccc(C#N)c(O)c3)c2n1 [compound 23, tert-Butyl N-[3-(4-cyano-3-hydroxyphenyl)pyrazolo[1,5-a]pyrimidin-5-yl]-N-[2-(2-hydroxyethoxy)ethyl]carbamate] | 
2 |  |  | 5.7 | O=C(O)c1ccc2cc1OCCOCCNc1ccn3ncc-2c3n1 [compound 34, 7,10-Dioxa-13,17,18,21-tetraazatetracyclo[12.5.2.1^2,^6.0^17,^20]docosa-1(20),2,4,6(22),14(21),15,18-heptaene-5-carboxylic acid] | 16.2
3 |  |  |  | CC(C)(C)OC(=O)N1CCOCCOc2cc(ccc2C(=O)O)-c2cnn3ccc1nc23 [compound 32, 13-[(tert-Butoxy)carbonyl]-7,10-dioxa-13,17,18,21-tetraazatetracyclo[12.5.2.1^2,^6.0^17,^20]docosa-1(20),2,4,6(22),14(21),15,18-heptaene-5-carboxylic acid] | 7.39
